One series deals with T1, Aldose Reductase (Bos taurus, UniProt P16116).
T1 construct: The enzyme is extracted from beef eye lenses; from tissue; host or cells: beef eye lenses
Briefly: Inhibition of aldose reductase in vitro (enzyme from beef eye lenses, glyceraldehyde substrate). Format: biochemical. The settings on record: in DMF solution, read-out: percentages of inhibition (aldose reductase); for inhibition at 100 µM: 10^-4 mole/l; for inhibition at 10 µM: 10^-5 mole/l; for inhibition at 1 µM: 10^-6 mole/l. The source says:
Inhibition of Aldose Reductase In Vitro
The reoxidation of NADPH coupled to the enzymatic reaction was followed spectrophotometrically at 340 nm.

In a further series the target is T2, COMT (Rattus norvegicus, UniProt P22734).
T2 construct: The enzyme is extracted from rat liver; from tissue; host or cells: rat liver
T2 sequence (P22734 1-221 isoform P22734-2): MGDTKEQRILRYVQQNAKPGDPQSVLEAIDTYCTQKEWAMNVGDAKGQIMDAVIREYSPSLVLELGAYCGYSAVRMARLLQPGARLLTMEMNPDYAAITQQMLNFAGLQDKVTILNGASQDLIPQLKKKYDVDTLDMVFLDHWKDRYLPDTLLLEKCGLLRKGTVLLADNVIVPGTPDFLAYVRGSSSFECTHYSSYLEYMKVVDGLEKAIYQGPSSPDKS
As to the kind of experiment: Inhibition of COMT in vitro (enzyme from rat liver, 4-nitrocatechol substrate). The settings on record: in dimethylsulfoxide solution, read-out: percentages of inhibition (COMT); for inhibition at 1000 µM: 10^-3 mole/l; for inhibition at 100 µM: 10^-4 mole/l; for inhibition at 10 µM: 10^-5 mole/l. The class given is biochemical. The method, then:
Inhibition of COMT in vitro The enzyme is extracted from rat liver by the method described by Axelrod et al, J. Biol. Chem., 233, 702(1958); its activity is measured in the presence of S-adenosyl methionine and using as substrate 4-nitrocatechol by the method described by Lee et al, J. Pharm. Sci., 66(7), 986(1977). The quantity of 4-nitrocatechol consumed was determined spectrophotometrically at 520 nm in alkaline medium.

Another series concerns carragenin edema. Briefly: Anti-inflammatory activity: carragenin edema test. The settings on record: Rattus norvegicus, ip, saturated bicarbonate solution, read-out: % inhibition of carragenin edema; for inhibition in vivo at 50 mg/kg: 50 mg/kg i.p.; for inhibition in vivo at 100 mg/kg: 100 mg/kg i.p. Format: in vivo. As for the experimental part:
Anti-inflammatory activity
This was determined by the carragenin edema test using male Wistar EOPS rats. Inflammation was induced by the injection of 0.1 ml of a suspension of 5% carragenin in physiological serum into the muscular bundle of the metatarsal region of the posterior paw of the animal. The test substance was administered i.p. in neutralized solution at the same time as the carragenin.
Edema was measured by plethysmometry at different times after the administration of the carragenin.
Tables IV and V show the percentages of inhibition as a function of time and of dosage for certain compounds of the present invention.
The above results were obtained for solutions of substantially alkaline
The reference experiments were performed using physiological serum brough
to a pH approximately the same as the pH of the solutions to be tested.

The nature of the next series: Solubilities in water. The class given is physicochemical. The settings on record: water.

SMILES strings stand for the structures. Converted amounts (≈) assume the structure as drawn. Read-outs that look alike come from different tables or passages of the source.

As for `O=c1ccc2cc(O[C@@H]3O[C@@H]4COC(c5ccc(O)c(O)c5)O[C@H]4[C@H](O)[C@H]3O)c(O)cc2o1` (stereo partly drawn) [No. 24, 6-O-(4,6-O,O-(3,4-dihydroxybenzylidene)-β-D-glucosyl) esculetol], at Aldose Reductase, the inhibition at 100 µM was determined as 71% and the inhibition at 10 µM amounted to 0%.
In the case of `C[C@@H]1O[C@@H](OC[C@H]2O[C@@H](Oc3c(-c4ccc(O)c(O)c4)oc4cc(O)cc(O)c4c3=O)[C@H](O)[C@@H](O)[C@@H]2O)[C@@H]2OC(c3ccc(O)cc3)O[C@@H]2[C@H]1O` (stereo partly drawn) [No. 23, 3-O-(2,3-O,O-p-hydroxybenzylidene-6-α-L-rhamnosyl-β-D-glucosyl)quercetin], at Aldose Reductase, the inhibition at 100 µM turned out to be 80% and the inhibition at 10 µM turned out to be 41%. In addition, on COMT, the inhibition at 1000 µM came to 80%, the inhibition at 100 µM was 90% and the inhibition at 10 µM is 40%.
For the compound `COc1ccc(C2O[C@@H]3[C@@H](O)[C@H](C)O[C@@H](OC[C@H]4O[C@@H](Oc5c(-c6ccc(O)c(O)c6)oc6cc(O)cc(O)c6c5=O)[C@H](O)[C@@H](O)[C@@H]4O)[C@@H]3O2)cc1` (stereo partly drawn) [No. 22, 3-O-(2,3-O,O-p-methoxybenzylidene-6-α-L-rhamnosyl-β-D-glucosyl)quercetin], on Aldose Reductase, the inhibition at 100 µM was 92%, the inhibition at 10 µM is 79% and the inhibition at 1 µM was 0%. Besides, on COMT, the inhibition at 1000 µM lay in the range of 80 to 100%, the inhibition at 100 µM was in the range of 80 to 92% and the inhibition at 10 µM came out at 45%.
On to `O=c1c(O)c(-c2ccc(O)c(O)c2)oc2cc(O)cc(O)c12` [quercetin, reference compound], for which the inhibition in vivo at 50 mg/kg with carragenin edema (1/2 h) came out at 0%; in the series on carragenin edema (1 h, 1 h 1/2), 0%; in the series with carragenin edema (1 h, 1 h) it was 0%; in the series with carragenin edema (2 h, 2 h) it was 0%; with carragenin edema (3 h, 3 h) it was 0%; in the series on carragenin edema (4 h, 4 h) it was 0%. Besides, the inhibition in vivo at 50 mg/kg with carragenin edema (5 h, 5 h) amounted to 0%; in the series with carragenin edema (6 h, 6 h), 0%. The inhibition in vivo at 100 mg/kg in the series on carragenin edema (1/2 h) was determined as 2%; with carragenin edema (1 h, 1 h 1/2) it was 8%; in the series with carragenin edema (1 h, 1 h), 0%; with carragenin edema (2 h, 2 h), 7%; with carragenin edema (3 h, 3 h) it was 0%; with carragenin edema (4 h, 4 h), 0%. In addition, the inhibition in vivo at 100 mg/kg in the series on carragenin edema (5 h, 5 h) amounted to 0%; in the series with carragenin edema (6 h, 6 h), 0%.
`C[C@@H]1O[C@@H](Oc2c(-c3cc(O)c(O)c(O)c3)oc3cc(O)cc(O)c3c2=O)[C@H](O)[C@H](O)[C@H]1O` [Myricitrin, reference compound]: on Aldose Reductase, the inhibition at 100 µM came out at 83%, the inhibition at 10 µM worked out at 56% and the inhibition at 1 µM was found to be 9%.
Turning to `C[C@@H]1O[C@@H](OC[C@H]2O[C@@H](Oc3c(-c4ccc(O)c(O)c4)oc4cc(O)cc(O)c4c3=O)[C@H](O)[C@@H](O)[C@@H]2O)[C@@H]2OC(C)(c3ccc(Cl)cc3)O[C@@H]2[C@H]1O` (stereo partly drawn) [No. 37, 3-O-(2,3-O,O-(α-methyl-p-chlorobenzylidene)-6-α-L-rhamnosyl-β-D-glucosyl) quercetin], on Aldose Reductase, the inhibition at 100 µM was determined as 100%, the inhibition at 10 µM came to 59% and the inhibition at 1 µM stood at 24%. Moreover, on COMT, the inhibition at 1000 µM came out at 100%, the inhibition at 100 µM came to 74% and the inhibition at 10 µM is 27%.
Take `Cc1ccc(C2(C)O[C@@H]3[C@@H](O)[C@H](C)O[C@@H](OC[C@H]4O[C@@H](Oc5c(-c6ccc(O)c(O)c6)oc6cc(O)cc(O)c6c5=O)[C@H](O)[C@@H](O)[C@@H]4O)[C@@H]3O2)cc1` (stereo partly drawn) [No. 35, 3-O-(2,3-O,O-(α-methyl-p-methylbenzylidene)-6-α-L-rhamnosyl-β-D-glucosyl) quercetin]: on Aldose Reductase, the inhibition at 100 µM amounted to 100%, the inhibition at 10 µM was 72% and the inhibition at 1 µM stood at 26%. For the same compound, at COMT, the inhibition at 1000 µM was 90%, the inhibition at 100 µM stood at 74% and the inhibition at 10 µM is 72%.
Take `C[C@@H]1O[C@@H](Oc2c(-c3ccc(O)c(O)c3)oc3cc(O)cc(O)c3c2=O)[C@H](O)[C@H](O)[C@H]1O` [Quercitrin, reference compound]: the Solubilities in water result in the series “Solubilities in water” was “insoluble”.
With `C[C@@H]1O[C@@H](Oc2c(-c3cc(O)c(O)c(O)c3)oc3cc(O)cc(O)c3c2=O)[C@@H]2OC(C)(C)O[C@@H]2[C@H]1O` [No. 14, 3-O-(2,3-O,O-isopropylidene-α-L-rhamnosyl)myricitin], on Aldose Reductase, the inhibition at 100 µM turned out to be 93%, the inhibition at 10 µM worked out at 83% and the inhibition at 1 µM is 11%.
Take `C[C@@H]1O[C@@H](O[C@H]2[C@H](Oc3cc(O)c4c(c3)O[C@H](c3ccc(O)cc3)CC4=O)O[C@H](CO)[C@@H](O)[C@@H]2O)[C@H](O)[C@H](O)[C@H]1O` [Naringin, reference compound]: the inhibition at 100 µM at Aldose Reductase is 33%.
For the compound `COc1ccc([C@@H]2CC(=O)c3c(O)cc(O[C@@H]4O[C@H](CO[C@@H]5O[C@@H](C)[C@H](O)[C@@H](O)[C@H]5O)[C@@H](O)[C@H](O)[C@H]4O)cc3O2)cc1O` [Hesperidin, reference compound], in the series “Solubilities in water” (read-out: Solubilities in water), the solubility was determined as 20 µg/mL (≈ 32.8 µM).
For `COc1ccc(C2(C)O[C@@H]3[C@@H](O)[C@H](C)O[C@@H](OC[C@H]4O[C@@H](Oc5c(-c6ccc(O)c(O)c6)oc6cc(O)cc(O)c6c5=O)[C@H](O)[C@@H](O)[C@@H]4O)[C@@H]3O2)cc1` (stereo partly drawn) [No. 36, 3-O-(2,3-O,O-(α-methyl-p-methoxybenzylidene)-6-α-L-rhamnosyl-β-D-glucosyl) quercetin], on Aldose Reductase, the inhibition at 100 µM was found to be 100%, the inhibition at 10 µM turned out to be 69% and the inhibition at 1 µM amounted to 22%. Besides, on COMT, the inhibition at 1000 µM came out at 91% and the inhibition at 10 µM was in the range of 15 to 22%.
For `C[C@@H]1O[C@@H](OC[C@H]2O[C@@H](Oc3c(-c4ccc(O)c(O)c4)oc4cc(O)cc(O)c4c3=O)[C@H](O)[C@@H](O)[C@@H]2O)[C@@H]2OC3(CCC4CCCCC4C3)O[C@@H]2[C@H]1O` (stereo partly drawn) [No. 28, 3-O-(2,3-O,O-(2-perhydronaphthylidene)-6-α-L-rhamnosyl-β-D-glucosyl) quercetin], at Aldose Reductase, the inhibition at 100 µM was 67%, the inhibition at 10 µM worked out at 62% and the inhibition at 1 µM was found to be 0%. At COMT, the inhibition at 1000 µM worked out at 76%, the inhibition at 100 µM amounted to 52% and the inhibition at 10 µM is 0%.
`C[C@@H]1O[C@@H](OC[C@H]2O[C@@H](Oc3c(-c4ccc(O)c(O)c4)oc4cc(O)cc(O)c4c3=O)[C@H](O)[C@@H](O)[C@@H]2O)[C@@H]2OC3(O[C@@H]2[C@H]1O)C1CC2CC(C1)CC3C2` (stereo partly drawn) [No. 33, 3-O-(2,3-O,O-adamantylidene-6-α-L-rhamnosyl-β-D-glucosyl)quercetin]: on Aldose Reductase, the inhibition at 100 µM was 100%, the inhibition at 10 µM came out at 92% and the inhibition at 1 µM is 44%. At Aldose Reductase (10^-7 mole/l), the inhibition at 0.1 µM is 7%. For the same compound, on COMT, the inhibition at 100 µM was 81 to 83% and the inhibition at 10 µM lay in the range of 33 to 36%.

As usually defined, the inhibition is the share of the control response that was lost under treatment.

Values taken from US4211772A, “Benzopyran glycoside acetals and ketals” (Laboratoires Sarget, priority 1977, dated 1980).
